One data set concerns ScN2a cells. The note with it: for Concentration of inhibiting cell proliferation TC: mouse.
Data set [1] concerns abnormal prion proteins in ScN2a cells with persistent infection of scrapie. The data set can be described thus: cells. Type of data set: cell-based, mouse. The note with it: for IC50: Mus musculus, ScN2a, 96 h, read-out: Inhibitory effects on producing abnormal prion protein IC50; for Inhibitory effects on producing abnormal prion proteins (in words): ScN2a cells.

Each structure is given as a SMILES string.

Consider `COc1ccc(/C=C/c2nc3ccccc3s2)cc1` [Compound N-455, 2-[2-(4-methoxyphenyl)-ethenyl]benzothiazole], for which the “Concentration of inhibiting cell proliferation TC” value in the data set with ScN2a cells stood at 100 µM. Also, the IC50 in data set [1] came out at 10 nM.

As for `C/C(=C\c1ccc(N)cc1)c1nc2ccccc2[nH]1` [Compound N-442, 4-[2-(2-benzimidazolyl)-2-methylethenyl]benzenamine], the “Concentration of inhibiting cell proliferation TC” value with ScN2a cells stood at 100 µM. Also, the IC50 in data set [1] worked out at 100 nM.

Consider `Nc1ccc(C(=O)Nc2ccc(-c3nc4cc(Cl)c(NC(=O)c5ccc(N)cc5)cc4[nH]3)cc2)cc1` [Compound N-246, 4-[6-(N′-(4-amino-benzoyl)amino)-5-chlorobenzimidazol-2-yl]-N-(4-aminobenzoyl)aniline], for which the “Concentration of inhibiting cell proliferation TC” value with ScN2a cells came out at 10 µM. Also, in data set [1], the IC50 came to 1 nM and the “Inhibitory effects on producing abnormal prion proteins (in words)” value (from here on “Inhibitory effects”) is “highly inhibitory effects”.

On to `CN(C)c1ccc(/C=C/c2nccn2C)cc1` [BF-138, 2-[2-(4-dimethylamino-phenyl)ethenyl]-1-methylimidazole], for which, in the data set with ScN2a cells, the “Concentration of inhibiting cell proliferation TC” value was 100 µM. For the same compound, in data set [1], the IC50 came to 100 nM.

With `Nc1ccc(-c2nc3ccc(N)cc3s2)cc1` [Compound N-224, 2-(4-aminophenyl)-6-aminobenzothiazole], the “Concentration of inhibiting cell proliferation TC” value in the data set on ScN2a cells is greater than 10 µM. In data set [1], the IC50 came out at 1 nM and the “Inhibitory effects” value was “highly inhibitory effects”.

Take `CCN(CC)c1ccc2cc(-c3nc4ccccc4[nH]3)c(=O)oc2c1` [SA-272, 2-(7-diethylamino-coumarin-3-yl)-benzimidazole]: the “Concentration of inhibiting cell proliferation TC” value in the data set on ScN2a cells turned out to be 100 µM. In data set [1], the IC50 turned out to be 1000 nM.

In the case of `Nc1ccc(-c2nc3ccc(N)cc3o2)cc1` [Compound N-226, 2-(4-aminophenyl)-6-aminobenzoxazole], the “Concentration of inhibiting cell proliferation TC” value with ScN2a cells was greater than 10 µM. In addition, the IC50 in data set [1] stood at 100 nM.

For `Nc1ccc(-c2nc3ccc(N)c(Cl)c3[nH]2)cc1` [Compound N-234, 2-(4-aminophenyl)-7-chloro-6-amino-benzimidazole], the “Concentration of inhibiting cell proliferation TC” value in the data set with ScN2a cells is greater than 10 µM. Further, in data set [1], the IC50 amounted to 100 nM.

`C(=C\c1cncs1)/c1nc2ccccc2o1` [BF-234]: the “Concentration of inhibiting cell proliferation TC” value with ScN2a cells is greater than 10 µM. Besides, the IC50 in data set [1] stood at 40 nM.

As for `Nc1ccc(-c2nc3cc(N)ccc3o2)cc1` [Compound N-225, 2-(4-aminophenyl)-5-aminobenzoxazole], the “Concentration of inhibiting cell proliferation TC” value in the data set with ScN2a cells is greater than 10 µM. For the same compound, the IC50 in data set [1] was 100 nM.

For `CN(C)c1ccc(/C=C/c2nc3cc([N+](=O)[O-])ccc3o2)cc1` [BF-135, 2-(4-dimethylamino) styryl-5-nitrobenzoxazole], in the data set on ScN2a cells, the “TC and safety concentration margin (in words)” value is “higher TCs, therefore higher safety concentration margins”; the “Concentration of inhibiting cell proliferation TC” value worked out at 100 µM. Further, in data set [1], the IC50 amounted to 1 nM and the “Inhibitory effects” value was “highly inhibitory effects”.

Consider `Clc1ccc2nc(-c3ccc(Br)s3)cn2c1` [Compound N-472, 2-(5-bromo-2-thienyl)-6-chloroimidazo[1,2-a]pyridine], for which the “Concentration of inhibiting cell proliferation TC” value with ScN2a cells came out at 100 µM. Further, in data set [1], the IC50 came to 10 nM.

Consider `Nc1ccc(-c2nc3cc(Oc4ccc5[nH]c(-c6ccc(N)cc6)nc5c4)ccc3[nH]2)cc1` [Compound N-241], for which the “Concentration of inhibiting cell proliferation TC” value in the data set with ScN2a cells was found to be 10 µM. Moreover, the IC50 in data set [1] was 10 nM.

Regarding `Clc1ccc(/C=C/c2nc3ccccc3s2)c(Cl)c1` [Compound N-452, 2-[2-(2,4-dichloro-phenyl)ethenyl]-benzothiazole], the “Concentration of inhibiting cell proliferation TC” value with ScN2a cells was 100 µM. Further, the IC50 in data set [1] came out at 100 nM.

As to `Cc1ccc2nc(-c3ccc(NC(=O)c4cccs4)cc3)sc2c1` [HT-042, 4-(6-methylbenzothiazol-2-yl)-N-(thio-phen-2-carbonyl)aniline], in the data set with ScN2a cells, the “Concentration of inhibiting cell proliferation TC” value was greater than 100 µM. Moreover, the IC50 in data set [1] was 10 nM.

On to `Cc1cccc(/C=C/c2nc3cc(C)ccc3s2)c1` [Compound N-439, 2-[2-(3-methylphenyl)-ethenyl]-5-methyl-benzothiazole], for which the “Concentration of inhibiting cell proliferation TC” value in the data set with ScN2a cells worked out at 100 µM. For the same compound, in data set [1], the IC50 came out at 10 nM.

For the compound `Nc1ccc(C(=O)Nc2ccc(-c3nc4cc(N)ccc4[nH]3)cc2)cc1` [Compound N-243, 4-(5-aminobenzimidazol-2-yl)-N-(4-amino-benzoyl)aniline], the “Concentration of inhibiting cell proliferation TC” value in the data set with ScN2a cells is greater than 10 µM. In data set [1], the IC50 stood at 1 nM and the “Inhibitory effects” value is “highly inhibitory effects”.

For the compound `Clc1ccc2nc(-c3ccccc3)c(Br)n2c1` [Compound N-468, 2-phenyl-3-bromo-6-chloroimidazo[1,2-a]pyridine], the “Concentration of inhibiting cell proliferation TC” value in the data set with ScN2a cells came out at 100 µM. The IC50 in data set [1] was 1000 nM.

With `Nc1ccc(-c2nc3ccc(N)cc3[nH]2)cc1` [Compound N-245, 2-(4-aminophenyl)-5-aminobenzimidazole], in the data set with ScN2a cells, the “Concentration of inhibiting cell proliferation TC” value was 10 µM. In addition, the IC50 in data set [1] turned out to be 100 nM.

In the case of `Nc1cccc(-c2cn3cc(Cl)ccc3n2)c1` [Compound N-475, 2-(3-aminophenyl)-6-chloroimidazo[1,2-a]pyridine], the “Concentration of inhibiting cell proliferation TC” value with ScN2a cells was 100 µM. Besides, in data set [1], the IC50 worked out at 100 nM.

In the case of `Nc1ccc(C(=O)Nc2ccc(-c3nc4cc(N)ccc4o3)cc2)cc1` [Compound N-220, 4-(5-aminobenzoxazol-2-yl)-N-(4-amino-benzoyl)aniline], the “Concentration of inhibiting cell proliferation TC” value in the data set with ScN2a cells is 10 µM. Moreover, in data set [1], the IC50 stood at 1 nM and the “Inhibitory effects” value is listed as “highly inhibitory effects”.

For the compound `Nc1ccc(-c2nc3cc(N)ccc3s2)cc1` [Compound N-231, 2-(4-aminophenyl)-5-aminobenzothiazole], the “Concentration of inhibiting cell proliferation TC” value in the data set with ScN2a cells was found to be 10 µM. Besides, the IC50 in data set [1] was 10 nM.

Take `Clc1ccc2nc(-c3cc(-c4ccccc4)no3)cn2c1` [Compound N-465, 2-(3-phenylisoxazol-5-yl)-6-chloroimidazo [1,2-a]pyridine]: the “Concentration of inhibiting cell proliferation TC” value in the data set on ScN2a cells was determined as 100 µM. In data set [1], the IC50 was determined as 10 nM.

As for `CN(C)c1ccc2cc(-c3nc4cc(F)ccc4o3)cnc2c1` [BF-161, 5-fluoro-2-(7-dimethyl-aminoquinolin-3-yl)-benzoxazole], in the data set with ScN2a cells, the “Concentration of inhibiting cell proliferation TC” value stood at 100 µM. For the same compound, in data set [1], the IC50 turned out to be 10 nM.

Take `Clc1ccc2nc(-c3ccccc3)cn2c1` [Compound N-464, 2-phenyl-6-chloro-imidazo[1,2-a]pyridine]: the “Concentration of inhibiting cell proliferation TC” value in the data set on ScN2a cells was found to be 100 µM. The IC50 in data set [1] amounted to 100 nM.

Regarding `Nc1ccc(-c2nc3cc(N)ccc3s2)c(O)c1` [Compound N-232, 2-(4-amino-2-hydroxy-phenyl)-5-amino-benzothiazole], in the data set on ScN2a cells, the “Concentration of inhibiting cell proliferation TC” value is 10 µM. Also, in data set [1], the IC50 was 1 nM and the “Inhibitory effects” value is on record as “highly inhibitory effects”.

For `Cc1ccn2c(Br)c(-c3ccccc3)nc2c1` [Compound N-467, 2-phenyl-3-bromo-7-methylimidazo[1,2-a]pyridine], the “Concentration of inhibiting cell proliferation TC” value in the data set on ScN2a cells was determined as 100 µM. In addition, the IC50 in data set [1] is 1000 nM.

On to `Cc1ccc2nc(-c3ccc(NC(=O)c4ccc(Cl)cc4)cc3)sc2c1` [HT-041, 4-(6-methylbenzothiazol-2-yl)-N-(4-chloro-benzoyl)aniline], for which, in the data set with ScN2a cells, the “Concentration of inhibiting cell proliferation TC” value is greater than 10 µM. Moreover, in data set [1], the IC50 was found to be 10 nM.

`Nc1ccc(-c2nc3cc(Cc4ccc5oc(-c6ccc(N)cc6)nc5c4)ccc3o2)cc1` [Compound N-221]: the “Concentration of inhibiting cell proliferation TC” value with ScN2a cells was greater than 10 µM. For the same compound, in data set [1], the IC50 was found to be 1 nM and the “Inhibitory effects” value is recorded as “highly inhibitory effects”.

`Cc1ccc2nc(-c3ccc(NC(=O)c4ccc(Cl)cc4Cl)cc3)sc2c1` [HT-040, 4-(6-methylbenzothiazol-2-yl)-N-(2,4-dichlorobenzoyl)aniline]: the “Concentration of inhibiting cell proliferation TC” value in the data set on ScN2a cells was greater than 10 µM. Further, in data set [1], the IC50 came to 10 nM.

As to `Cc1cc2[nH]c(-c3ccc(N)cc3)nc2cc1N` [Compound N-242, 2-(4-aminophenyl)-5-amino-6-methyl-benzimidazole], in the data set on ScN2a cells, the “Concentration of inhibiting cell proliferation TC” value came to 10 µM. Also, in data set [1], the IC50 came out at 100 nM.

`Ic1ccc2nc(-c3ccccc3)cn2c1` [Compound N-469, 2-phenyl-6-iodo-imidazo[1,2-a]pyridine]: the “Concentration of inhibiting cell proliferation TC” value in the data set with ScN2a cells is on record as “≧100 μM”. The IC50 in data set [1] came out at 100 nM.

`Cc1ccn2cc(-c3ccccc3)nc2c1` [Compound N-463, 2-phenyl-7-methyl-imidazo[1,2-a]pyridine]: the “Concentration of inhibiting cell proliferation TC” value in the data set on ScN2a cells worked out at 100 µM. Also, in data set [1], the IC50 is 100 nM.

Turning to `Nc1ccc(C(=O)Nc2ccc3nc(-c4cc(Cl)c(NC(=O)c5ccc(N)cc5)c(Cl)c4)[nH]c3c2Cl)cc1` [Compound N-233, 4-[6-(N′-(4-amino-benzoyl)amino)-7-chlorobenzimidazol-2-yl]-N-(4-aminobenzoyl)-2,6-dichloroaniline], in the data set on ScN2a cells, the “Concentration of inhibiting cell proliferation TC” value is 10 µM. The IC50 in data set [1] amounted to 100 nM.

For the compound `CN(C)c1ccc(/C=C/c2nc3ccc4ccccc4c3s2)cc1` [Compound N-283, 4-[2-(naphth[4,5-c]-thiazol-2-yl)ethenyl]-N,N-dimethylbenzenamine], the “Concentration of inhibiting cell proliferation TC” value in the data set on ScN2a cells was determined as 50 µM. In data set [1], the IC50 came out at 500 nM.

In the case of `Nc1ccc(-c2nc3cc(Oc4ccc(Oc5ccc6[nH]c(-c7ccc(N)cc7)nc6c5)cc4)ccc3[nH]2)cc1` [Compound N-244], the “Concentration of inhibiting cell proliferation TC” value in the data set on ScN2a cells was greater than 10 µM. The IC50 in data set [1] was determined as 10 nM.

`Cc1cc(N)cc2nc(-c3ccc(N)c(Cl)c3)[nH]c12` [Compound N-240, 2-(4-amino-3-chloro-phenyl)-5-amino-7-methylbenzimidazole]: the “Concentration of inhibiting cell proliferation TC” value in the data set with ScN2a cells stood at 10 µM. In addition, the IC50 in data set [1] was 100 nM.

The record behind these values is US20050260126A1 (priority 2002, published 2005).
